Earlier results as cited in US4203975A, “Psychopharmacological peptides suitable for therapeutic administration” (Akzona Incorporated, priority 1977, dated 1980).

Legend:
[1] = prior art
rats = rats from which the hypophysis or the posterior lobe thereof has been removed

NC(=O)CC[C@@H]1NC(=O)[C@H](Cc2ccccc2)NC(=O)[C@H](Cc2ccc(O)cc2)NC(=O)[C@@H](N)CSSC[C@@H](C(=O)N2CCC[C@H]2C(=O)N[C@@H](CCCN=C(N)N)C(=O)NCC(N)=O)NC(=O)[C@H](CC(N)=O)NC1=O [vasopressin]
pressor activity [1]: extremely powerful pressor activity

(Lys)-vasopressin zinc tannate
inhibition of the extinction of the conditioned flight response (rats): capable of inhibiting the extinction of the conditioned flight response
